Measurements from ChEMBL document CHEMBL1770080, “Diamide amino-imidazoles: a novel series of γ-secretase inhibitors for the treatment of Alzheimer's disease” (Bioorg Med Chem Lett, 2011).
Activity calls are given as the source filed them. No cut-off for these calls is given here.

Assays:
[1] = Inhibition of gamma-secretase in guinea pig brain; design: species or system Cavia porcellus
Cavia porcellus [2] = assay: Antialzheimer activity in guinea pig assessed as reduction of total amyloid beta level in cerebral spinal fluid at 1 to 32 mg/kg, sc after 3 to 7 hrs by DELFIA-based ELISA; assay type: functional, organism-based
Cavia porcellus [3] = assay: Antialzheimer activity in guinea pig assessed as reduction of total amyloid beta level in brain at 1 to 32 mg/kg, sc after 1 hr by DELFIA-based ELISA; assay type: functional, organism-based
Cavia porcellus [4] = assay: Antialzheimer activity in guinea pig assessed as reduction of total amyloid beta level in brain at 1 to 32 mg/kg, sc after 3 to 7 hrs by DELFIA-based ELISA; assay type: functional, organism-based
Cavia porcellus [5] = assay: Antialzheimer activity in guinea pig assessed as reduction of total amyloid beta level in cerebral spinal fluid at 1 to 32 mg/kg, sc after 1 hr by DELFIA-based ELISA; assay type: functional, organism-based
Cavia porcellus [6] = assay: Antialzheimer activity in guinea pig assessed as reduction of total amyloid beta level in plasma at 1 to 32 mg/kg, sc after 1 hr by DELFIA-based ELISA; assay type: functional, organism-based
Cavia porcellus [7] = assay: Antialzheimer activity in guinea pig assessed as reduction of total amyloid beta level in brain at 5 mg/kg, sc administered 3 doses over 24 hrs measured after 3 hrs last post dose by DELFIA-based ELISA; assay type: functional; design: scale not given: the % may be the effect or the level left; conditions: route subcutaneous
Cavia porcellus [8] = assay: Antialzheimer activity in sc dosed guinea pig assessed as reduction of total amyloid beta level in brain after 3 hrs by DELFIA-based ELISA; assay type: functional
Cavia porcellus [9] = assay: Antialzheimer activity in guinea pig assessed as reduction of total amyloid beta level in plasma at 3.2 mg/kg, sc after 3 hrs by DELFIA-based ELISA; assay type: functional, organism-based; design: dose 3.2 mg/kg
Cavia porcellus [10] = assay: Antialzheimer activity in guinea pig assessed as reduction of total amyloid beta level in plasma at 1 to 32 mg/kg, sc after 3 to 7 hrs by DELFIA-based ELISA; assay type: functional, organism-based
Cavia porcellus [11] = assay: Antialzheimer activity in guinea pig assessed as reduction of total amyloid beta level in plasma at 1 to 32 mg/kg, sc after 3 hrs by DELFIA-based ELISA; assay type: functional; design: scale not given: the % may be the effect or the level left; conditions: dose mg/kg 1-32; route subcutaneous
[12] = Inhibition of gamma secretase-mediated notch processing in C57BL/6 mouse fetal thymic organ cultures assessed as reduction of B and T-cell populations after […] by FACS analysis
Cavia porcellus [13] = assay: Antialzheimer activity in guinea pig assessed as reduction of total amyloid beta level in brain at 10 mg/kg, sc after 3 hrs by DELFIA-based ELISA; assay type: functional; design: scale not given: the % may be the effect or the level left
Mus musculus = organism: Mus musculus; assay: Antialzheimer activity in heterozygous PDAPP transgenic mouse overexpressing APP V717F mutant assessed as reduction of total amyloid beta level in brain; assay type: functional; conditions: read-out: MED

Question: Which IC50 [1] does the source give for `CCC[C@H](NC(=O)Cc1cc(F)cc(F)c1)C(=O)Nc1cn(C(C)(C)CNCC(C)(C)C)cn1` here?
Answer: Its IC50 is 24 nM.

Question: And the Activity (Cavia porcellus [2])?
Answer: Its Activity is “Active”.

Question: What about the Activity (Cavia porcellus [3]) of the same molecule?
Answer: Its Activity is “Active”.

Question: What about the Activity (Cavia porcellus [4]) of the same molecule?
Answer: Its Activity is “Active”.

Question: What about the Activity (Cavia porcellus [5]) of the same molecule?
Answer: Its Activity is “inactive”.

Question: And the Activity (Cavia porcellus [6])?
Answer: Its Activity is “Active”.

Question: What about the Activity (Cavia porcellus [7]) of the same molecule?
Answer: The Activity was 50%.

Question: What about the ED50 (Cavia porcellus [8]) of the same molecule?
Answer: The ED50 was 7.3 mg/kg.

Question: What about the Activity (Cavia porcellus [9]) of the same molecule?
Answer: The Activity was “Active”.

Question: And the Activity (Cavia porcellus [10])?
Answer: Its Activity is “Active”.

Question: What about the Activity (Cavia porcellus [11]) of the same molecule?
Answer: The Activity was 60%.

Question: What about the EC50 [12] of the same molecule?
Answer: Its EC50 is 1200 nM.

Question: With `CCC[C@H](NC(=O)Cc1cc(F)cc(F)c1)C(=O)Nc1cn(C(C)(C)CNC2CCC(O)CC2)cn1` (some centres undefined) as the molecule, how does the EC50 [12] read?
Answer: The EC50 was greater than 10000 nM.

Question: With `CCC[C@H](NC(=O)Cc1cc(F)cc(F)c1)C(=O)Nc1cn(C(C)(C)CC(=O)OC)cn1` as the molecule, how does the Activity (Cavia porcellus [13]; route subcutaneous) read?
Answer: Its Activity is 32%.

Question: For `CCC[C@H](NC(=O)Cc1cc(F)cc(F)c1)C(=O)Nc1cn(C(CC)CC)cn1`, which Activity (Cavia porcellus [13]; route subcutaneous) is on record?
Answer: The Activity was less than 10%.

Question: With `C[C@H](NC(=O)Cc1cc(F)cc(F)c1)C(=O)N[C@H](C(=O)OC(C)(C)C)c1ccccc1` as the molecule, how does the minimal effective dose (Mus musculus) read?
Answer: Its minimal effective dose is 30 mg/kg.

Question: Which Activity (Cavia porcellus [13]; route subcutaneous) does the source give for `CCC[C@H](NC(=O)Cc1cc(F)cc(F)c1)C(=O)Nc1cn(C(C)(C)CN2CCCC2)cn1` here?
Answer: The Activity was 43%.

Question: Which EC50 [12] does the source give for `CCC[C@H](NC(=O)Cc1cc(F)cc(F)c1)C(=O)Nc1cn(C(C)(C)CNC(C)C)cn1` here?
Answer: The EC50 was greater than 10000 nM.

Question: With `C[C@H](NC(=O)Cc1cc(F)cc(F)c1)C(=O)Nc1cn(C(C)(C)CN2CCCC2)cn1` as the molecule, how does the Activity (Cavia porcellus [13]) read?
Answer: Its Activity is “inactive”.

Question: Which Activity (Cavia porcellus [13]) does the source give for `CC(C)C[C@H](NC(=O)Cc1cc(F)cc(F)c1)C(=O)Nc1cn(C(C)(C)CN2CCCC2)cn1` here?
Answer: The Activity was “inactive”.

Question: With `CCC[C@H](NC(=O)Cc1cc(F)cc(F)c1)C(=O)Nc1cn(C(C)(C)CNCC2CCOCC2)cn1` as the molecule, how does the EC50 [12] read?
Answer: The EC50 was 4000 nM.

Question: With `CCC[C@H](NC(=O)Cc1cc(F)cc(F)c1)C(=O)Nc1cn(C(C)(C)CN(C)C)cn1` as the molecule, how does the EC50 [12] read?
Answer: The EC50 was 700 nM.

Question: Which EC50 [12] does the source give for `CCC[C@H](NC(=O)Cc1cc(F)cc(F)c1)C(=O)Nc1cn(C(C)(C)CN2CCOCC2)cn1` here?
Answer: Its EC50 is 100 nM.

Question: For `CCC[C@H](NC(=O)Cc1cc(F)cc(F)c1)C(=O)Nc1cn(C(C)(C)CNCc2ccccc2)cn1`, which EC50 [12] is on record?
Answer: The EC50 was 4300 nM.
